What was measured:
[1] = Cytotoxicity against human Chang liver cells assessed as reduction in cell viability after 24 hrs by DAPI/propidium iodide staining based assay
M-HeLa [2] = test: Antiproliferative activity against human M-HeLa cells assessed as reduction in cell viability after 24 hrs by DAPI/propidium iodide staining based assay; type: functional
MCF7 = test: Antiproliferative activity against human MCF7cells assessed as reduction in cell viability after 24 hrs by DAPI/propidium iodide staining based assay; type: functional; conditions: MCF7, 24 h
M-HeLa [3] = test: Induction of apoptosis in human M-HeLa cells assessed as early apoptotic cells at 25 uM after 24 hrs by annexin V-FITC/PIstaining based flow cytometric analysis (reference value: 1.5%); type: functional
M-HeLa [4] = test: Induction of apoptosis in human M-HeLa cells assessed as necrotic cells at 10 uM after 24 hrs by annexin V-FITC/PIstaining based flow cytometric analysis (reference value: […]); type: functional
M-HeLa [5] = test: Induction of mitochondrial membrane potential loss in human M-HeLa cells assessed as intact mitochondrial membrane potential at 25 uM after 24 hrs by Jc-10 dye based flow cytometric analysis (reference value: 77.48%); type: functional
M-HeLa [6] = test: Induction of mitochondrial membrane potential loss in human M-HeLa cells assessed as collapsed mitochondrial membrane potential at 25 uM after 24 hrs by Jc-10 dye based flow cytometric analysis (reference value: 22.17%); type: functional
M-HeLa [7] = test: Induction of apoptosis in human M-HeLa cells assessed as necrotic cells at 25 uM after 24 hrs by annexin V-FITC/PIstaining based flow cytometric analysis (reference value: […]); type: functional
[8] = Hemolytic activity in human Erythrocytes at 50 +/- 0.8 uM relative to control; type: ADME, cell-based, Erythrocyte; conditions: read-out: Activity
[9] = Hemolytic activity in human Erythrocytes at 10 +/- 0.8 uM relative to control; type: ADME, cell-based, Erythrocyte; conditions: read-out: Activity
M-HeLa [10] = test: Induction of apoptosis in human M-HeLa cells assessed as early apoptotic cells at 10 uM after 24 hrs by annexin V-FITC/PIstaining based flow cytometric analysis (reference value: 1.5%); type: functional
M-HeLa [11] = test: Induction of mitochondrial membrane potential loss in human M-HeLa cells assessed as intact mitochondrial membrane potential at 10 uM after 24 hrs by Jc-10 dye based flow cytometric analysis (reference value: 77.48%); type: functional
[12] = Hemolytic activity in human Erythrocytes at 100 +/- 7.8 uM relative to control; type: ADME, cell-based, Erythrocyte; conditions: read-out: Activity
M-HeLa [13] = test: Induction of mitochondrial membrane potential loss in human M-HeLa cells assessed as collapsed mitochondrial membrane potential at 10 uM after 24 hrs by Jc-10 dye based flow cytometric analysis (reference value: 22.17%); type: functional
M-HeLa [14] = test: Induction of apoptosis in human M-HeLa cells assessed as late apoptotic cells at 10 uM after 24 hrs by annexin V-FITC/PIstaining based flow cytometric analysis (reference value: 0.62%); type: functional
M-HeLa [15] = test: Induction of apoptosis in human M-HeLa cells assessed as late apoptotic cells at 25 uM after 24 hrs by annexin V-FITC/PIstaining based flow cytometric analysis (reference value: 0.62%); type: functional
M-HeLa [16] = test: Induction of apoptosis in human M-HeLa cells assessed as viable cells at 25 uM after 24 hrs by annexin V-FITC/PIstaining based flow cytometric analysis (reference value: 93.33%); type: functional; conditions: read-out: Activity
M-HeLa [17] = test: Induction of apoptosis in human M-HeLa cells assessed as viable cells at 10 uM after 24 hrs by annexin V-FITC/PIstaining based flow cytometric analysis (reference value: 93.33%); type: functional; conditions: read-out: Activity

C[C@@]12CC[C@@H]3[C@@](CC[C@H]4[C@@]3(C)CCC[C@@]4(C)C(=O)O[C@@H]3O[C@H](CO)[C@H](O)[C@H](O)[C@H]3O)(CC1=O)C2
IC50 [1]: 58 µM
IC50 (M-HeLa [2]): 52 µM
IC50 (MCF7): 29 µM

CC(=O)N[C@H]1[C@H](OC(=O)[C@]2(C)CCC[C@@]3(C)[C@@H]4CC[C@@]5(C)C[C@]4(CC[C@@H]32)CC5=O)O[C@H](CO)[C@@H](O)[C@@H]1O
IC50 [1]: > 100 µM
IC50 (M-HeLa [2]): > 100 µM
IC50 (MCF7): > 100 µM

CC(=O)OC[C@H]1O[C@@H](OC(=O)[C@]2(C)CCC[C@@]3(C)[C@@H]4CC[C@@]5(C)C[C@]4(CC[C@@H]32)CC5=O)[C@H](OC(C)=O)[C@@H](OC(C)=O)[C@H]1OC(C)=O
IC50 [1]: > 100 µM
IC50 (M-HeLa [2]): > 100 µM
IC50 (MCF7): > 100 µM

C[C@@]12CC[C@@H]3[C@@](CC[C@H]4[C@@]3(C)CCC[C@@]4(C)C(=O)O[C@@H]3O[C@H](C(=O)NN)[C@@H](O)[C@H](O)[C@H]3O)(C/C1=N\N)C2
IC50 [1]: > 100 µM
IC50 (M-HeLa [2]): > 100 µM
IC50 (MCF7): > 100 µM

CC(=O)N[C@H]1[C@H](OC(=O)CCCCCOC(=O)[C@]2(C)CCC[C@@]3(C)[C@@H]4CC[C@@]5(C)C[C@]4(CC[C@@H]32)CC5=O)O[C@H](COC(C)=O)[C@@H](OC(C)=O)[C@@H]1OC(C)=O
IC50 [1]: 51.2 µM
IC50 (M-HeLa [2]): 46 µM
IC50 (MCF7): > 100 µM

CC/C(=C(\c1ccccc1)c1ccc(OCCN(C)C)cc1)c1ccccc1 [TAMOXIFEN]
IC50 [1]: 46 µM

C[C@@]12CC[C@@H]3[C@@](CC[C@H]4[C@@]3(C)CCC[C@@]4(C)C(=O)O[C@@H]3O[C@H](CO)[C@@H](O)[C@H](O)[C@H]3O)(CC1=O)C2
IC50 [1]: > 100 µM
IC50 (M-HeLa [2]): 32 µM
IC50 (MCF7): > 100 µM

COC(=O)[C@H]1O[C@@H](OC(=O)[C@]2(C)CCC[C@@]3(C)[C@@H]4CC[C@@]5(C)C[C@]4(CC[C@@H]32)CC5=O)[C@H](OC(C)=O)[C@@H](OC(C)=O)[C@@H]1OC(C)=O
IC50 [1]: > 100 µM
IC50 (M-HeLa [2]): 26 µM
IC50 (MCF7): 65 µM

C[C@@]12CC[C@@H]3[C@@](CC[C@H]4[C@@]3(C)CCC[C@@]4(C)C(=O)O[C@H]3O[C@H](CO)[C@@H](O)[C@H](O)[C@@H]3O)(CC1=O)C2
IC50 [1]: > 100 µM
IC50 (M-HeLa [2]): > 100 µM
IC50 (MCF7): > 100 µM

CC(=O)OC[C@H]1O[C@H](OC(=O)CCCCCOC(=O)[C@]2(C)CCC[C@@]3(C)[C@@H]4CC[C@@]5(C)C[C@]4(CC[C@@H]32)CC5=O)[C@@H](OC(C)=O)[C@@H](OC(C)=O)[C@@H]1OC(C)=O
Activity (M-HeLa [3]): 10.59%
Activity (M-HeLa [4]): 0.22%
IC50 [1]: > 100 µM
Activity (M-HeLa [5]): 10.64%
Activity (M-HeLa [6]): 89.29%
Activity (M-HeLa [7]): 0.05%
hemolysis at 50 uM [8]: 1.7%
IC50 (M-HeLa [2]): 11 µM
hemolysis at 10 uM [9]: 0%
Activity (M-HeLa [10]): 7.57%
Activity (M-HeLa [11]): 8.98%
hemolysis at 100 uM [12]: 5.5%
Activity (M-HeLa [13]): 90.91%
Activity (M-HeLa [14]): 5.59%
Activity (M-HeLa [15]): 5.02%
viability at 25 µM (M-HeLa [16]): 84.3%
viability at 10 µM (M-HeLa [17]): 86.6%
IC50 (MCF7): 63.2 µM

CC(=O)N[C@H]1[C@H](OC(=O)CCCCCCCCCOC(=O)[C@]2(C)CCC[C@@]3(C)[C@@H]4CC[C@@]5(C)C[C@]4(CC[C@@H]32)CC5=O)O[C@H](COC(C)=O)[C@@H](OC(C)=O)[C@@H]1OC(C)=O
IC50 [1]: > 100 µM
IC50 (M-HeLa [2]): > 100 µM
IC50 (MCF7): 64.9 µM

CC(=O)N[C@H]1[C@H](OC(=O)[C@]2(C)CCC[C@@]3(C)[C@@H]4CC[C@@]5(C)C[C@]4(CC[C@@H]32)CC5=O)O[C@H](COC(C)=O)[C@@H](OC(C)=O)[C@@H]1OC(C)=O
IC50 [1]: 86 µM
IC50 (M-HeLa [2]): 18 µM
IC50 (MCF7): 36 µM

CC(=O)OC[C@H]1O[C@@H](OC(=O)CCCCCCCCCOC(=O)[C@]2(C)CCC[C@@]3(C)[C@@H]4CC[C@@]5(C)C[C@]4(CC[C@@H]32)CC5=O)[C@H](OC(C)=O)[C@@H](OC(C)=O)[C@H]1OC(C)=O
IC50 [1]: > 100 µM
IC50 (M-HeLa [2]): 27 µM
IC50 (MCF7): 33.2 µM

CC(=O)OC[C@H]1O[C@H](OC(=O)CCCCCCCCCOC(=O)[C@]2(C)CCC[C@@]3(C)[C@@H]4CC[C@@]5(C)C[C@]4(CC[C@@H]32)CC5=O)[C@@H](OC(C)=O)[C@@H](OC(C)=O)[C@@H]1OC(C)=O
IC50 [1]: > 100 µM
IC50 (M-HeLa [2]): 18 µM
IC50 (MCF7): 31 µM

CC(=O)OC[C@H]1O[C@@H](OC(=O)CCCCCOC(=O)[C@]2(C)CCC[C@@]3(C)[C@@H]4CC[C@@]5(C)C[C@]4(CC[C@@H]32)CC5=O)[C@H](OC(C)=O)[C@@H](OC(C)=O)[C@H]1OC(C)=O
Activity (M-HeLa [3]): 39.77%
Activity (M-HeLa [4]): 5.49%
IC50 [1]: > 100 µM
Activity (M-HeLa [5]): 11.53%
Activity (M-HeLa [6]): 88.38%
Activity (M-HeLa [7]): 8.9%
hemolysis at 50 uM [8]: 0%
IC50 (M-HeLa [2]): 10 µM
hemolysis at 10 uM [9]: 0%
Activity (M-HeLa [10]): 34.78%
Activity (M-HeLa [11]): 55.78%
hemolysis at 100 uM [12]: 0%
Activity (M-HeLa [13]): 44.17%
Activity (M-HeLa [14]): 7.61%
Activity (M-HeLa [15]): 13.98%
viability at 25 µM (M-HeLa [16]): 37.3%
viability at 10 µM (M-HeLa [17]): 52.1%
IC50 (MCF7): 32.1 µM

CC(=O)OC[C@H]1O[C@H](OC(=O)[C@]2(C)CCC[C@@]3(C)[C@@H]4CC[C@@]5(C)C[C@]4(CC[C@@H]32)CC5=O)[C@@H](OC(C)=O)[C@@H](OC(C)=O)[C@@H]1OC(C)=O
Activity (M-HeLa [3]): 13.12%
Activity (M-HeLa [4]): 3.98%
IC50 [1]: > 100 µM
Activity (M-HeLa [5]): 7.74%
Activity (M-HeLa [6]): 92.26%
Activity (M-HeLa [7]): 0.28%
hemolysis at 50 uM [8]: 0%
IC50 (M-HeLa [2]): 15.1 µM
hemolysis at 10 uM [9]: 0%
Activity (M-HeLa [10]): 3.02%
Activity (M-HeLa [11]): 28.67%
hemolysis at 100 uM [12]: 0%
Activity (M-HeLa [13]): 70.85%
Activity (M-HeLa [14]): 7.25%
Activity (M-HeLa [15]): 12.97%
viability at 25 µM (M-HeLa [16]): 73.7%
viability at 10 µM (M-HeLa [17]): 85.8%
IC50 (MCF7): 29.3 µM

CC(=O)OC[C@H]1O[C@@H](OC(=O)[C@]2(C)CCC[C@@]3(C)[C@@H]4CC[C@@]5(C)C[C@]4(CC[C@@H]32)CC5=O)[C@H](OC(C)=O)[C@@H](OC(C)=O)[C@@H]1OC(C)=O
IC50 [1]: > 100 µM
IC50 (M-HeLa [2]): > 100 µM
IC50 (MCF7): > 100 µM

Source: ChEMBL document CHEMBL4373667, “Synthesis and anti-cancer activities of glycosides and glycoconjugates of diterpenoid isosteviol” (Medchemcomm, 2019)
